Each compound was assayed against Intestinal-type alkaline phosphatase (Mus musculus, UniProt P24822) (assay: PubChem AID 488785).
Sequence of Intestinal-type alkaline phosphatase (P24822 whole entry, looked up): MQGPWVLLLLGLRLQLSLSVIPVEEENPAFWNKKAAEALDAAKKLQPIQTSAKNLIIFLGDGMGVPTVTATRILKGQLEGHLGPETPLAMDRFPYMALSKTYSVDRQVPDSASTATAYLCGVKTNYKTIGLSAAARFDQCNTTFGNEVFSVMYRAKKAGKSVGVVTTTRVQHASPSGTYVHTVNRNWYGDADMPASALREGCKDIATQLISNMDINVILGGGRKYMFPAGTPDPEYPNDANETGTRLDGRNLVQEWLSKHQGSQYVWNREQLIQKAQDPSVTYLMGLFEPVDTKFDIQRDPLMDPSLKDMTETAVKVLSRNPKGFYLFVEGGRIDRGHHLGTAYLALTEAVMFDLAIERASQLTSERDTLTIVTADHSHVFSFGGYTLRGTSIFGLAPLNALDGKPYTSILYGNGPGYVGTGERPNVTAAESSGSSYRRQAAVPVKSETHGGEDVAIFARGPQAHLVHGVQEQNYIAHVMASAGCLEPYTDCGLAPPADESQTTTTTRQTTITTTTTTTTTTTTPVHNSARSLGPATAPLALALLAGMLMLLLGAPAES

IC50 | SMILES
0.206 µM | Cc1ccc(Cl)c2c1NC(=O)/C2=C1/NC(=S)NC1=O
2.79 µM | Nc1nnc(CC(=O)N/N=C/C2C=C([N+](=O)[O-])C=C(Br)C2=O)s1 (stereo unspecified) [2-(5-azanyl-1,3,4-thiadiazol-2-yl)-N'-[(E)-(5-bromanyl-3-nitro-6-oxidanylidene-cyclohexa-2,4-dien-1-ylidene)methyl]ethanehydrazide]
42.4 µM | NS(=O)(=O)c1cc(C(=O)NNC2=c3ccccc3=NC2=O)ccc1Cl [2-chloro-5-[[(2-oxoindol-3-yl)amino]carbamoyl]benzenesulfonamide]
2.2 µM | COc1cc(C=Nn2c(O)csc2=S)ccc1O [3-[[(E)-(3-methoxy-4-oxidanylidene-cyclohexa-2,5-dien-1-ylidene)methyl]amino]-2-sulfanylidene-1,3-thiazolidin-4-one]
4.15 µM | Oc1ccc(C=Nn2c(O)csc2=S)c(O)c1O [3-[[(E)-[2,3-bis(oxidanyl)-4-oxidanylidene-cyclohexa-2,5-dien-1-ylidene]methyl]amino]-2-sulfanylidene-1,3-thiazolidin-4-one]
9.92 µM | CC1NON=C1C(=O)NN=CC1=CC(=O)C(=O)C=C1 (stereo unspecified) [4-Methyl-furazan-3-carboxylic acid (3,4-dihydroxy-benzylidene)-hydrazide]
1.51 µM | Oc1ccc(CN=Nc2cc(N3CCCC3)nc(N3CCCC3)n2)cc1O [(4Z)-4-[[2-(2,6-dipyrrolidin-1-ylpyrimidin-4-yl)hydrazinyl]methylidene]-2-hydroxycyclohexa-2,5-dien-1-one]
61.9 µM | Cc1ccc(/C=C2\SC(=S)N(/N=C/C3C=C([N+](=O)[O-])C=CC3=O)C2=O)o1 (stereo unspecified) [(5Z)-5-[(5-methylfuran-2-yl)methylidene]-3-[[(E)-(3-nitro-6-oxocyclohexa-2,4-dien-1-ylidene)methyl]amino]-2-sulfanylidene-1,3-thiazolidin-4-one]
0.366 µM | C#CCOCCOCCOCCNc1nc(N2CCN(C(=O)CCCCCCCCCCNC(=O)[C@H]([C@@H](C)CC)n3cc(CCCCN=C(N)N)nn3)CC2)nc(N2CCN(C(=O)CCCCCCCCCCNC(=O)[C@@H]([C@H](C)O)n3cc(C)nn3)CC2)n1 [GT-RI]
6.31 µM | C#CCOCCOCCOCCNc1nc(N2CCN(C(=O)CCCCCCCCCCNC(=O)Cn3cc(CCCCCN)nn3)CC2)nc(N2CCN(C(=O)CCCCCCCCCCNC(=O)Cn3cc(C[C@@H](C)O)nn3)CC2)n1 [KG-TG]
17.1 µM | C#CCOCCOCCOCCNc1nc(N2CCN(C(=O)CCCCCCCCCCNC(=O)[C@@H](CCC(=O)O)n3cc(CCCCCN)nn3)CC2)nc(N2CCN(C(=O)CCCCCCCCCCNC(=O)[C@H]([C@@H](C)CC)n3cc(CCCCCN)nn3)CC2)n1 [KI-KE]
0.216 µM | O=C1C=CC(C=NNC(=S)Nc2ccccc2[N+](=O)[O-])C=C1O (stereo unspecified) [MLS000417596]
5.89 µM | C#CCOCCOCCOCCNc1nc(N2CCN(C(=O)CCCCCCCCCCNC(=O)[C@@H](CCSC)n3cc(CCO)nn3)CC2)nc(N2CCN(C(=O)CCCCCCCCCCNC(=O)[C@H]([C@@H](C)CC)n3cc(CCCCCN)nn3)CC2)n1 [MLS002153719]
7.75 µM | O=C(Nn1c(O)csc1=S)C(=O)Nn1c(O)csc1=S [SMR000349781]
1.04 µM | O=C1C=CC(/C=C/c2nc(O)c([N+](=O)[O-])c(=O)[nH]2)C=C1O (stereo unspecified) [SMR000524347]
8.38 µM | COc1cc(C=CC(=O)CC(=O)C=Cc2ccc(O)cc2)ccc1O [demethoxycurcumin]
